Read-outs that look alike come from different tables or passages of the source.
What was measured:
[1] = target: T1, human MERTK cytoplasmic domain (Homo sapiens, UniProt Q12866); assay: biochemical; conditions: 30 uM ATP, read-out: Assay 1a Mer IC50 30 uM ATP
T1 construct: human MERTK cytoplasmic domain (Carna Biosciences 08-108); purchased Carna Biosciences 08-108
Protocol: Assay 1a—MERTK HTRF KinEASE-TK Assay
The enzymatic reaction was carried out for 30 min at room temperature. 10 μL TK Antibody-Cryptate/Streptavidin-XL665 (Cisbio 610SAXLG) was then added for 60 min, including EDTA containing detection buffer (Cisbio 62SDBRDF) to stop the reaction.

[2] = target: T2, recombinant human AXL expressed in live cells (HEK, AXL-Nanoluc fusion vector) (Homo sapiens, UniProt P30530); assay: Assay 3 AXL cellular target engagement (NanoBRET TE) assay; assay type: cell-based
T2 construct: host or cells: HEK
T2 sequence (P30530 26-894): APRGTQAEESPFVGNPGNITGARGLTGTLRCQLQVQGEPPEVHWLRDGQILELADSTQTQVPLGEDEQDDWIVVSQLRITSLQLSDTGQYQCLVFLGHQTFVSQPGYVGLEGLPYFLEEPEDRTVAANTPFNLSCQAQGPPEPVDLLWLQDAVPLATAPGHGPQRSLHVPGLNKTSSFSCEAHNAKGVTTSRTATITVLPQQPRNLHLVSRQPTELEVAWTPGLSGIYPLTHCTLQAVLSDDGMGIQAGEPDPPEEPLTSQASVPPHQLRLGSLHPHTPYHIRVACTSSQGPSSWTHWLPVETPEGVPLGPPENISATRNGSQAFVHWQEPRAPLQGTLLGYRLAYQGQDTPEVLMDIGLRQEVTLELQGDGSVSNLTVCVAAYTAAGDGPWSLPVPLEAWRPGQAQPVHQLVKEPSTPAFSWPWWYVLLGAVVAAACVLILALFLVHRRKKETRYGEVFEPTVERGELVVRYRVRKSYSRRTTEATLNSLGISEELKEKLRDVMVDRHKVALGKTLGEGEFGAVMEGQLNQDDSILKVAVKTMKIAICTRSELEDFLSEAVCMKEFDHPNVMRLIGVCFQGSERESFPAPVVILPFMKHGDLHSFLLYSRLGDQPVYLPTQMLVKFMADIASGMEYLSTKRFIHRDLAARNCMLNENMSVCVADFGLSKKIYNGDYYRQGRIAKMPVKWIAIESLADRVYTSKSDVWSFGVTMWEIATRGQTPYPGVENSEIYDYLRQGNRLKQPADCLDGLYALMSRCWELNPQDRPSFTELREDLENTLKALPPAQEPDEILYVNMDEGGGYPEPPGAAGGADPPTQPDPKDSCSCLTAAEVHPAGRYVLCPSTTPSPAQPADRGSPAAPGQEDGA
Protocol: Assay 3—AXL Cellular Target Engagement (TE) Assay
Compound affinities for recombinant human AXL expressed in live cells were assessed via the Promega NanoBRET TE assay technology. Human Embryonic Kidney (HEK) cells were transiently transfected with the AXL-Nanoluc fusion vector (Promega Cat NV1071) using Fugene HD reagent (Promega E2311). […] Incubations were conducted for 2 h at 37° C., after which 20 μl NanoGlo substrate/inhibitor mix (Promega N2161) was added to each well for 2-3 min. The plate was then read on a BMG Pherastar FSX using a NanoBRET filter to record donor emission at 450 nm and acceptor fluorophore emission at 610 nm. From this the BRET ratio (acceptor 610 nm/donor 450 nm) for each data point was calculated.

[3] = target: T3, recombinant human MERTK expressed in live cells (HEK 293, MERTK-Nanoluc fusion vector) (Homo sapiens, UniProt Q12866); assay: Assay 2 MERTK cellular target engagement (NanoBRET TE) assay; assay type: cell-based; conditions: HEK 293 cells, tracer K9, 2 h at 37° C.; read-out: Assay 2 Cell TE MER IC50
T3 construct: host or cells: HEK 293
T3 sequence (Q12866 21-999): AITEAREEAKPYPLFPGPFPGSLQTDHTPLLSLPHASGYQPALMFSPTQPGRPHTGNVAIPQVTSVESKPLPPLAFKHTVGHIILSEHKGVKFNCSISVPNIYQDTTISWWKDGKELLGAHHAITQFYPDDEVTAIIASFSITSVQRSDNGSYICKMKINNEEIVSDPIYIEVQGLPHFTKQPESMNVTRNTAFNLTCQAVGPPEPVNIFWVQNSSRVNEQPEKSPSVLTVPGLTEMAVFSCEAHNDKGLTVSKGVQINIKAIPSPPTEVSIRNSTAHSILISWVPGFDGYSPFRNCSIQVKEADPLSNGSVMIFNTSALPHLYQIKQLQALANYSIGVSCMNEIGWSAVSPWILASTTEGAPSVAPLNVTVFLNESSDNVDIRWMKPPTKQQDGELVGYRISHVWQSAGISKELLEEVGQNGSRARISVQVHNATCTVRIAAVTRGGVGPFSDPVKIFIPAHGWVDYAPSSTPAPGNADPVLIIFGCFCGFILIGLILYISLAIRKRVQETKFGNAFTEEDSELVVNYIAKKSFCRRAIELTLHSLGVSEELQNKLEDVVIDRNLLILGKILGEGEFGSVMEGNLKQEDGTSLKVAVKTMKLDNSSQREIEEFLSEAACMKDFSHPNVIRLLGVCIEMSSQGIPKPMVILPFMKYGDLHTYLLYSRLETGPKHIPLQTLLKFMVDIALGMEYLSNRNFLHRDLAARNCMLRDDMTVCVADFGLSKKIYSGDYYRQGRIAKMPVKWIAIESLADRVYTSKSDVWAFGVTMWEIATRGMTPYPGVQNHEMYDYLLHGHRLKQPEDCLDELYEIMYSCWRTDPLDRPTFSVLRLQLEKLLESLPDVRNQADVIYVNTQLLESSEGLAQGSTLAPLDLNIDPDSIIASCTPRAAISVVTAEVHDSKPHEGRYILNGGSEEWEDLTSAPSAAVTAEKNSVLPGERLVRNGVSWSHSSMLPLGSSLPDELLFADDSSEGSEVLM

[4] = target: T4, Ba/F3 Pro B-cell line expressing TEL-human MERTK fusion domain (Homo sapiens, UniProt Q12866); assay type: cell-based; conditions: cell survival, 48 h, CellTiter-Glo; read-out: TEL-MERTK Ba/F3 IC50
T4 sequence (Q12866 587-858 limits assumed): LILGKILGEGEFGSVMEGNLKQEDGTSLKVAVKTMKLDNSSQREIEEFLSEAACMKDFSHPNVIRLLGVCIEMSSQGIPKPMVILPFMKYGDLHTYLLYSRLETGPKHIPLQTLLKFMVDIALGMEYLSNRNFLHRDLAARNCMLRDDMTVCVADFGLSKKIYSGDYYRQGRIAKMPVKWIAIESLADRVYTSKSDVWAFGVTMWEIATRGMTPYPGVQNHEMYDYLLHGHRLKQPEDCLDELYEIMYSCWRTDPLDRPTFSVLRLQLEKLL
In short: (§1)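 Ba/F3 cells dependent on BCR-AXL or TEL-MERTK fusion kinase (IL3-free; IL3 only for control lines) treated with compound 48 h at 37 °C, 0.25% DMSO. Viability by CellTiter-Glo luminescence; IC50 for half-maximal inhibition of survival from 4-parameter variable-slope fit.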

[5] = target: T5, Ba/F3 Pro B-cell line expressing BCR-human AXL kinase domain fusion protein (Homo sapiens, UniProt P30530); assay: Assay 5 Ba/F3 cell survival assay, BCR-Axl; assay type: cell-based; conditions: read-out: BCR-Axl Ba/F3 IC50, 48 h, CellTiter-Glo
T5 construct: P11274 (Breakpoint cluster region protein)
T5 sequence (P30530 536-807 limits assumed): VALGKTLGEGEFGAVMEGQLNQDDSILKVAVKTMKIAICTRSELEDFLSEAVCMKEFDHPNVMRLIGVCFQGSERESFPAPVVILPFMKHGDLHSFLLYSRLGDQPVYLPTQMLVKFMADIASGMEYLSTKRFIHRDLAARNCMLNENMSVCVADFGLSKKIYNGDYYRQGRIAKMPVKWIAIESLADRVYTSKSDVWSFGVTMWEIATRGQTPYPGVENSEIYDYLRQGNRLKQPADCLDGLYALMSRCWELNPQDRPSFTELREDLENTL
In short: as §1

[6] = target: T6, human AXL cytoplasmic domain (Homo sapiens, UniProt P30530); assay: Assay 1b AXL HTRF KinEASE-TK assay; assay type: biochemical
T6 construct: human AXL cytoplasmic domain (Thermo Fisher A31515); purchased Thermo Fisher A31515
T6 sequence (P30530 473-894 limits assumed): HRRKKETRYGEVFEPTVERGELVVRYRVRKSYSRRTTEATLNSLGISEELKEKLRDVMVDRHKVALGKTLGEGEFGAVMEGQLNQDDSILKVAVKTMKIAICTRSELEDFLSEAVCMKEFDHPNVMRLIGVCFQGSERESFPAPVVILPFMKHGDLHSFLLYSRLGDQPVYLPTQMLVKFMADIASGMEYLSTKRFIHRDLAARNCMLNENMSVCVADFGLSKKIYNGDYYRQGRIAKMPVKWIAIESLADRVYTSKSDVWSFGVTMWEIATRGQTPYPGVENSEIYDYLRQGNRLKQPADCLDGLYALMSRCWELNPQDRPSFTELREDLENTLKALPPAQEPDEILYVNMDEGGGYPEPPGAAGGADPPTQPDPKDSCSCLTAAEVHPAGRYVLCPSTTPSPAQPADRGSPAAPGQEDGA
In short: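 Recombinant cytoplasmic domain (5 nM) in kinase buffer with 5 mM MgCl2, 1 mM MnCl2, 1 mM DTT, 50 nM SEB plus test compounds; reaction 30 min at room temperature. EDTA-containing detection with TK antibody-cryptate/streptavidin-XL665 for 60 min; HTRF 665/620 ratio read. IC50 from 4-parameter logistic fit with variable slope.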

[7] = target: T7, Ba/F3 Pro B-cell line expressing TEL-human Tyro3 fusion domain (Homo sapiens, UniProt Q06418); assay type: cell-based; conditions: cell survival, 48 h, CellTiter-Glo
T7 sequence (Q06418 518-790 limits assumed): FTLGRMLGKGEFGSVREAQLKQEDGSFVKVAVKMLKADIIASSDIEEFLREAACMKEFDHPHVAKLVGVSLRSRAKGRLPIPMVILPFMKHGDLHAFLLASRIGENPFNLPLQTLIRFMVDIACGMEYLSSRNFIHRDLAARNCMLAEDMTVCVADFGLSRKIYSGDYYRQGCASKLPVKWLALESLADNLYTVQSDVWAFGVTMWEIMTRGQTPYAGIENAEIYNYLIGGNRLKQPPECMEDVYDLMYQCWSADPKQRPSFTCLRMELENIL

SMILES	IC50 [1] [µM]	IC50 [2] [µM]	IC50 [3] [µM]	IC50 ([1]; * Maximal inhibition achieved 40%) [µM]	IC50 [4] [µM]	IC50 [5] [µM]	IC50 [6] [µM]	IC50 [7] [µM]
O=C(Nc1ccc(Nc2ccnc3cnc(N4CCNCC4)cc23)cc1)c1cccn(-c2ccccc2)c1=O [Example 1, 2-oxo-1-phenyl-N-[4-[(6-piperazin-1-yl-1,7-naphthyridin-4-yl)amino]phenyl]pyridine-3-carboxamide]	0.068	0.145	0.175	–	–	–	–	–
CC(C)n1cc(C(=O)Nc2ccc(Nc3ccnc4cnc(N5CCNCC5)cc34)cc2)c(=O)n(-c2ccc(F)cc2)c1=O [Example 1.1, 3-(4-fluorophenyl)-1-isopropyl-2,4-dioxo-N-[4-[(6-piperazin-1-yl-1,7-naphthyridin-4-yl)amino]phenyl]pyrimidine-5-carboxamide]	0.075	0.0029	1.75	–	–	–	–	–
O=C(Nc1ccc(Nc2ccnc3cnc(N4CCNCC4)cc23)cc1)c1cccn(-c2ccc(F)cc2)c1=O [Example 1.2, 1-(4-fluorophenyl)-2-oxo-N-[4-[(6-piperazin-1-yl-1,7-naphthyridin-4-yl)amino]phenyl]pyridine-3-carboxamide]	0.02	0.114	0.028	–	–	–	–	–
CC(C)n1cc(C(=O)Nc2ccc(Nc3ccnc4cnc(N5CCNCC5)cc34)cc2)c(=O)n(-c2ccccc2)c1=O [Example 1.3, 1-isopropyl-2,4-dioxo-3-phenyl-N-[4-[(6-piperazin-1-yl-1,7-naphthyridin-4-yl)amino]phenyl]pyrimidine-5-carboxamide]	0.182	0.0248	0.26	–	–	–	–	–
Cc1c(C(=O)Nc2ccc(Nc3ccnc4cnc(N5CCNCC5)cc34)cc2)c(=O)n(-c2ccccc2)n1C [Example 1.4, 1,5-dimethyl-3-oxo-2-phenyl-N-[4-[(6-piperazin-1-yl-1,7-naphthyridin-4-yl)amino]phenyl]pyrazole-4-carboxamide]	0.033	–	2.19	–	–	–	–	–
O=C(Nc1ccc(Nc2ccnc3cnc(N4CCC(O)CC4)cc23)cc1)c1cccn(-c2ccccc2)c1=O [Example 2, N-[4-[[6-(4-hydroxy-1-piperidyl)-1,7-naphthyridin-4-yl]amino]phenyl]-2-oxo-1-phenyl-pyridine-3-carboxamide]	0.059	0.173	0.0466	–	–	–	–	–
Cn1cc(-c2cc3c(Nc4ccc(NC(=O)c5cccn(-c6ccccc6)c5=O)cc4)ccnc3cn2)cn1 [Example 4, N-[4-[[6-(1-methylpyrazol-4-yl)-1,7-naphthyridin-4-yl]amino]phenyl]-2-oxo-1-phenyl-pyridine-3-carboxamide]	–	–	2.9	0.003	–	–	–	–
CN1CCN(c2cc3c(Oc4ccc(NC(=O)c5cccn(-c6ccc(F)cc6)c5=O)cc4)ccnc3cn2)CC1 [Example 35, 1-(4-fluorophenyl)-N-[4-[[6-(4-methylpiperazin-1-yl)-1,7-naphthyridin-4-yl]oxy]phenyl]-2-oxo-pyridine-3-carboxamide]	0.004	–	–	–	0.014	0.008	0.06	0.116

— patent US20230203029A1 (priority 2020, published 2023)
